Measurements: paper PMC4403932 (Journal of Medicinal Chemistry, 2015)
Like-named read-outs stand apart in the source and are kept apart here.

Columns and labels:
Format in all cases: binding
[1] = molecular target: T1, BRDT(1) (Homo sapiens, UniProt Q58F21); experiment: Protein stability (thermal) shift assay, BRDT(1); conditions: compound 10 μM, protein 2 μM; average of triplicate
T1 construct: made in house
Protocol: (§1) Thermal melting experiments were carried out using an Mx3005p real time PCR machine (Stratagene). Proteins were buffered in 10 mM HEPES, pH 7.5, 500 mM NaCl and assayed in a 96-well plate at a final concentration of 2 μM in 20 μL volume. Compounds were added at a final concentration of 10 or 100 μM. SYPRO Orange (Molecular Probes) was added as a fluorescence probe at a dilution of 1 in 1000. Excitation and emission filters for the SYPRO-Orange dye were set to 465 and 590 nm, respectively. The temperature was raised with a step of 3 °C per minute from 25 to 96 °C, and fluorescence readings were taken at each interval. The temperature dependence of the fluorescence during the protein denaturation process was approximated by the equation [drawing 1] where ΔuG is the difference in unfolding free energy between the folded and unfolded state, R is the gas constant, and yF and yU are the fluorescence intensity of the probe in the presence of completely folded and unfolded protein, respectively.[65] The baselines of the denatured and native states were approximated by a linear fit. The observed temperature shifts, ΔTm^obs, were recorded as the difference between the transition midpoints of sample and reference wells containing protein without ligand in the same plate and determined by nonlinear least-squares fit. Temperature shifts (ΔTm^obs) for three independent measurements per proteins/compound are summarized in Supporting Information Table S1.

[2] = molecular target: T2, BRD2(1) (Homo sapiens, UniProt P25440); experiment: Protein stability (thermal) shift assay, BRD2(1); conditions: compound 10 μM, protein 2 μM; average of triplicate
T2 construct: Fragments were tested in a thermal shift assay against bromodomains of the BET subfamily; made in house
T2 sequence (P25440 74-180 limits assumed): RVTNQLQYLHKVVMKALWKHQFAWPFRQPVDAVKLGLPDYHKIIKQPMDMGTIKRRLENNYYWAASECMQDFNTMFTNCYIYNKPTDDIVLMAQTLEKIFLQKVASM
Protocol: as §1

[3] = molecular target: T3, BRD3(2) (Homo sapiens, UniProt Q15059); experiment: Protein stability (thermal) shift assay, BRD3(2); conditions: compound 10 μM, protein 2 μM; average of triplicate
T3 construct: made in house
T3 sequence (Q15059 306-415 limits assumed): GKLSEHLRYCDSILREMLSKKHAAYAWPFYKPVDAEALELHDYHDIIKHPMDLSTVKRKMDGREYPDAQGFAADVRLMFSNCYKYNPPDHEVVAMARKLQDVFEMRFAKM
Protocol: as §1

[4] = molecular target: T4, BRD3(1) (Homo sapiens, UniProt Q15059); experiment: Protein stability (thermal) shift assay, BRD3(1); conditions: compound 10 μM, protein 2 μM; average of triplicate
T4 construct: Fragments were tested in a thermal shift assay against bromodomains of the BET subfamily; made in house
T4 sequence (Q15059 34-140 limits assumed): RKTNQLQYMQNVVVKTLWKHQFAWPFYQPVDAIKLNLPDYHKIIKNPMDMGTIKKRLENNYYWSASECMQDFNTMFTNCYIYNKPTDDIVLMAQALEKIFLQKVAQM
Protocol: as §1

[5] = molecular target: T5, BRD2(2) (Homo sapiens, UniProt P25440); experiment: Protein stability (thermal) shift assay, BRD2(2); conditions: compound 10 μM, protein 2 μM; average of triplicate
T5 construct: made in house
T5 sequence (P25440 344-453 limits assumed): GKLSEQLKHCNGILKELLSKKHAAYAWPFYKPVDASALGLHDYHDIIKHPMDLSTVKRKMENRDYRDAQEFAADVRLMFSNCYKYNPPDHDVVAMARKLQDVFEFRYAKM
Protocol: as §1

[6] = molecular target: T6, PCAF (Homo sapiens, UniProt Q92831); experiment: Protein stability (thermal) shift assay, PCAF; conditions: compound 10 μM, protein 2 μM; average of triplicate
T6 construct: representative BRDs from other structural subfamilies (family I, PCAF); made in house
T6 sequence (Q92831 723-827 limits assumed): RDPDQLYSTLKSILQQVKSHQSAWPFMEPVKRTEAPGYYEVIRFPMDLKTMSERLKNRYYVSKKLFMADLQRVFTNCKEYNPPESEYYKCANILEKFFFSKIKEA
Protocol: as §1

[7] = molecular target: T7, BRDT(2) (Homo sapiens, UniProt Q58F21); experiment: Protein stability (thermal) shift assay, BRDT(2)
T7 construct: made in house
Protocol: as §1

[8] = molecular target: T8, BRD4(1) (Homo sapiens, UniProt O60885); experiment: Protein stability (thermal) shift assay, BRD4(1); conditions: compound 10 μM, protein 2 μM; average of triplicate; read-out: ΔTm Shift, BRD4(1)
T8 construct: made in house
Protocol: as §1

[9] = molecular target: T9, BAZ2B (Homo sapiens, UniProt Q9UIF8); experiment: Protein stability (thermal) shift assay, BAZ2B; conditions: compound 10 μM, protein 2 μM; average of triplicate; read-out: ΔTm Shift, BAZ2BA
T9 construct: representative BRDs from other structural subfamilies (family I, PCAF); family III, CREBBP; family IV, BRD9; family V, BAZ2B; made in house
T9 sequence (Q9UIF8 2060-2164 limits assumed): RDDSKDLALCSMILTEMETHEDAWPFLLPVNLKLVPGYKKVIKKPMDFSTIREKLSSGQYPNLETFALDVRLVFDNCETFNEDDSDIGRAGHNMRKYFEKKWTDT
Protocol: as §1

[10] = molecular target: T10, BRD9 (Homo sapiens, UniProt Q9H8M2); experiment: Protein stability (thermal) shift assay, BRD9; conditions: compound 10 μM, protein 2 μM; average of triplicate; read-out: ΔTm Shift, BRD9
T10 construct: made in house
T10 sequence (Q9H8M2 136-240 limits assumed): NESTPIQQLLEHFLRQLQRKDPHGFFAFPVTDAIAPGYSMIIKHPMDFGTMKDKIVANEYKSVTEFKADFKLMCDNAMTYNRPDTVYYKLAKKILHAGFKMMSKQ
Protocol: as §1

[11] = molecular target: T11, BRD4(2) (Homo sapiens, UniProt O60885); experiment: Protein stability (thermal) shift assay, BRD4(2); conditions: compound 10 μM, protein 2 μM; average of triplicate
T11 construct: made in house
Protocol: as §1

[12] = molecular target: T12, CREBBP (Homo sapiens, UniProt Q92793); experiment: Protein stability (thermal) shift assay, CREBBP
T12 construct: small thermal shits (1.0–1.3 °C) for the bromodomain of CREBBP; made in house
T12 sequence (Q92793 1085-1192 limits assumed): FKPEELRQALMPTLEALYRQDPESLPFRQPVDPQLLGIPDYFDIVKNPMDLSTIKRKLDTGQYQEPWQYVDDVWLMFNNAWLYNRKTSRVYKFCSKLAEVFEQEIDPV
Protocol: as §1

[13] = molecular target: T13, PB1(5) (Homo sapiens, UniProt Q86U86); experiment: Protein stability (thermal) shift assay, PB1(5); conditions: compound 10 μM, protein 2 μM; average of triplicate
T13 construct: made in house
T13 sequence (Q86U86 653-763 limits assumed): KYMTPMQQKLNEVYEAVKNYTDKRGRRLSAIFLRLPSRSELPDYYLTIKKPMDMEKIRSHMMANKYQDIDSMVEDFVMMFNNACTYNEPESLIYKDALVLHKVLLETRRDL
Protocol: as §1

[14] = test system: human bromodomains (panel); experiment: Protein stability (thermal) shift assay, whole panel of human bromodomains; conditions: 10 μM compound
Protocol: as §1

[15] = molecular target: T10, BRD9; experiment: Isothermal titration calorimetry, BRD9
Protocol: Experiments were carried out on an ITC200 titration microcalorimeter from MicroCal, LLC (GE Healthcare) equipped with a Washing module, with a cell volume of 0.2003 mL, and a 40 μL microsyringe. Experiments were carried out at 15 °C while stirring at 1000 rpm, in ITC buffer (50 mM HEPES, pH 7.5 (at 25 °C), 150 mM NaCl). The microsyringe was loaded with a solution of the protein sample (300−740 μM protein for BRD9 and BRD4(1), respectively, in ITC buffer) and was carefully inserted into the calorimetric cell which was filled with an amount of the ligand (0.2 mL, 20–25 μM in ITC buffer). The system was first allowed to equilibrate until the cell temperature reached 15 °C, and an additional delay of 60 s was applied. All titrations were conducted using an initial control injection of 0.3 μL followed by 38 identical injections of 1 μL with a duration of 2 s (per injection) and a spacing of 120 s between injections. The titration experiments were designed in such a fashion as to ensure complete saturation of the proteins before the final injection. The heat of dilution for the proteins was independent of their concentration and corresponded to the heat observed from the last injection, following saturation of ligand binding, thus facilitating the estimation of the baseline of each titration from the last injection. The collected data were corrected for protein heats of dilution (measured on separate experiments by titrating the proteins into ITC buffer) and deconvoluted using the MicroCal Origin software supplied with the instrument to yield enthalpies of binding (ΔH) and binding constants (KB) in the same fashion as that previously described in detail by Wiseman and co-workers.[66] Thermodynamic parameters were calculated using the basic equation of thermodynamics (ΔG = ΔH – TΔS = −RT ln KB, where ΔG, ΔH, and ΔS are the changes in free energy, enthalpy, and entropy of binding, respectively). In all cases a single binding site model was employed, supplied with the MicroCal Origin software package.

[16] = compound 10 μM, protein 2 μM, average of triplicate, read-out: ΔTm Shift, BRDT(2)
[17] = compound 10 μM, protein 2 μM, average of triplicate, read-out: ΔTm Shift, CREBBP
[18] = thermal shift, 10 μM compound, 2 μM protein, read-out: ΔTm

Structure (SMILES)	ΔTm at 10 µM [1]	ΔTm at 10 µM [2]	ΔTm at 10 µM [3]	ΔTm at 10 µM [4]	ΔTm at 10 µM [5]	ΔTm at 10 µM [6]	ΔTm at 10 µM [7, 16]	ΔTm at 10 µM [8]	ΔTm at 10 µM [9]	ΔTm at 10 µM [10]	ΔTm at 10 µM [11]	ΔTm at 10 µM [12, 17]	ΔTm at 10 µM [13]	binding to the bromodomain panel in the ΔTm assay (in words) [14]	further results
Cn1cnc2c(-c3ccc(Oc4ccccc4)cc3)nc(N)nc21 [Compound 3e, 2-Amino-6-(4-phenoxyphenyl)-9-methylpurine]	0.6 °C	0.32 °C	0.8 °C	0.743 °C	0.463 °C	1 °C	1.2 °C	1 °C	0.6 °C	0.257 °C	0.8 °C	1.3 °C	0.8 °C	very weak or no binding	–
COc1ccc(Br)cc1-c1nc(N)nc2c1ncn2CC(C)=O [Compound 8c, 2-Amino-6-(5-bromo-2-methoxyphenyl)-9-(2-oxopropyl)-purine]	0.151 °C	0.0207 °C	0.535 °C	0.275 °C	0.0227 °C	-0.6 °C	0.571 °C	0.24 °C	-0.06 °C	-0.109 °C	-0.431 °C	-0.07 °C	0.243 °C	could not be tolerated	–
COc1ccc(F)cc1-c1nc(O)nc2[nH]cnc12 [Compound 8d, 6-(5-Fluoro-2-methoxyphenyl)-2-hydroxy-9H-purine]	0.9 °C	1 °C	0.187 °C	0.9 °C	0.5 °C	0.535 °C	0.368 °C	0.9 °C	0.277 °C	-0.8 °C	0.7 °C	0.34 °C	0.564 °C	lost affinity across the panel	–
COc1ccc(Br)cc1-c1nc(O)nc2[nH]cnc12 [Compound 8f, 6-(5-Bromo-2-methoxyphenyl)-2-hydroxy-9H-purine]	0.653 °C	1 °C	0.853 °C	0.55 °C	0.5 °C	0.378 °C	1 °C	1.2 °C	0.563 °C	-0.66 °C	0.7 °C	0.6 °C	0.8 °C	lost affinity across the panel	–

Continued, in another order:

ΔTm at 10 µM [1]	ΔTm at 10 µM [2]	ΔTm at 10 µM [3]	ΔTm at 10 µM [4]	ΔTm at 10 µM [5]	ΔTm at 10 µM [6]	ΔTm at 10 µM [7, 16]	ΔTm at 10 µM [8]	ΔTm at 10 µM [9]	ΔTm at 10 µM [10]	ΔTm at 10 µM [11]	ΔTm at 10 µM [12, 17]	ΔTm at 10 µM [13]	binding to the bromodomain panel in the ΔTm assay (in words) [14]	Structure (SMILES)	further results
0.4 °C	0.163 °C	0.467 °C	0.147 °C	0.6 °C	0.9 °C	0.0167 °C	0.323 °C	0.6 °C	–	0.337 °C	0.74 °C	0.7 °C	completely abolished bromodomain binding	COc1ccc(Br)cc1-c1nc(N)nc2c1ncn2C [Compound 8b, 2-Amino-6-(5-bromo-2-methoxyphenyl)-9-methylpurine]	KD ([15]; ITC, 50 mM HEPES pH 7.5, 150 mM NaCl, 15 °C, reverse titration, triplicate): no binding/weak
1.5 °C	2.1 °C	1.3 °C	1.9 °C	1.2 °C	2 °C	1.8 °C	2.3 °C	1.2 °C	-0.2 °C	1.3 °C	1 °C	1.7 °C	promiscuously bound to most bromodomains	COc1ccc(Cl)cc1-c1nc(O)nc2[nH]cnc12 [Compound 8e, 6-(5-Chloro-2-methoxyphenyl)-2-hydroxy-9H-purine]	Kd ([15]; ITC, 50 mM HEPES pH 7.5, 150 mM NaCl, 15 °C, reverse titration, triplicate, read-out: KD): 7.58 ± 0.365 µM; TΔS ([15]; ITC, 15 °C): 1.40 kcal/mol; ΔG ([15]; ITC, 15 °C): –6.75 kcal/mol; N (stoichiometry) ([15]; ITC, 15 °C, reverse titration): 1.05 ± 0.013; ΔHobs ([15]; ITC, 15 °C, reverse titration): –5.35 ± 0.09 kcal/mol; LE (ligand efficiency) ([15]; LE = ΔG/N, N number of non-hydrogen atoms): 0.36
-0.7 °C	-1 °C	-0.7 °C	-1 °C	-0.5 °C	-1.1 °C	-2.5 °C	-0.7 °C	-1.3 °C	-0.32 °C	-3.8 °C	1.1 °C	-0.0233 °C	very weak or no binding	COc1ccc(-c2nc(N)nc3c2ncn3C)cc1 [Compound 3c, 2-Amino-6-(4-methoxyphenyl)-9-methylpurine]	–
0.273 °C	-0.15 °C	0.223 °C	-0.0167 °C	0.6 °C	0.143 °C	-0.163 °C	0.177 °C	0.6 °C	–	0.2 °C	0.9 °C	0.5 °C	very weak or no binding	Cn1cnc2c(-c3cccc(OCc4ccc(Cl)cc4)c3)nc(N)nc21 [Compound 4e, 2-Amino-6-(3-(4′-chlorobenzyloxy)phenyl)-9-methylpurine]	ΔTm at 10 µM [12, 18]: 1 to 1.3 °C
0.2 °C	0.0729 °C	0.341 °C	0.2 °C	0.9 °C	-1.5 °C	–	0.0286 °C	0.2 °C	0.8 °C	0.148 °C	0.259 °C	0.0705 °C	very low affinity for all bromodomains	COc1ccc(F)cc1-c1ncnc2[nH]c(C)nc12 [Compound 9b, 6-(5-Fluoro-2-methoxyphenyl)-8-methyl-9H-purine]	ΔTm at 10 µM [7, 18]: 2.9 °C
